# ChEMBL document CHEMBL5518232, “Discovery of New Tricyclic Oxime Sampangine Derivatives as Potent Antifungal Agents for the Treatment of Cryptococcosis and Candidiasis” (J Med Chem, 2024)
# Test system: Candida albicans
# Assay: Synergistic antifungal activity against Candida albicans 0304103 assessed as fractional inhibitory concentration index by measuring ratio of MIC80 for compound and synergetic / MIC80 for compound alone + MIC80 for fluconazole synergetic / MIC80 for fluconazole alone
# Format: functional
# Details: not given
row,Compound,fractional inhibitory concentration index (FICI)
1,CO/N=C1/c2ccccc2C(=O)c2c(C)noc21,0.047
2,CCc1noc2c1C(=O)c1sccc1/C2=N/OC,0.047
3,Cc1noc2c1C(=O)c1sccc1/C2=N/O,0.094
4,CO/N=C1/c2ccsc2C(=O)c2ccsc21,0.047

# Test system: Cryptococcus neoformans
# Assay: Antifungal activity against Cryptococcus neoformans H99 assessed as reduction in fungal growth incubated for 72 hrs by liquid based microdilution method
# Format: functional
# Details: not given
row,Compound,MIC80 [µg/mL]
1,CO/N=C1/c2ccsc2/C(=N\OC)c2ccsc21,32
2,CO/N=C1/c2ccsc2C(=O)c2ccsc21,64

# The remaining lines, values ahead:
row,MIC80 [µg/mL],Compound
1,0.031,Cc1noc2c1C(=O)c1sccc1C2=O
2,32,CO/N=C1/c2ccccc2C(=O)c2c(C)noc21
3,0.13,CCc1noc2c1C(=O)c1sccc1/C2=N/OC
4,0.25,Cc1noc2c1C(=O)c1sccc1/C2=N/O

# Test system: Cryptococcus neoformans
# Assay: Antifungal activity against Cryptococcus neoformans assessed as reduction in fungal growth incubated for 24 hrs by broth microdilution method
# Format: functional
# Details: not given
row,MIC80 [µg/mL],Compound
1,2,O=C1c2ccccc2-c2nccc3ccnc1c23 [SAMPANGINE]
2,0.25,Cc1ccnc2c1C(=O)c1sc([N+](=O)[O-])cc1C2=O

# Test system: Candida tropicalis
# Assay: Antifungal activity against Candida tropicalis 10186 assessed as reduction in fungal growth incubated for 48 hrs by liquid based microdilution method
# Format: functional
# Details: not given
row,Compound,MIC80 [µg/mL]
1,CO/N=C1/c2ccsc2/C(=N\OC)c2ccsc21,> 64
2,CO/N=C1/c2ccsc2C(=O)c2ccsc21,> 64

# Now from value to compound:
row,MIC80 [µg/mL],Compound
1,2,Cc1noc2c1C(=O)c1sccc1C2=O
2,> 64,CO/N=C1/c2ccccc2C(=O)c2c(C)noc21
3,> 64,CCc1noc2c1C(=O)c1sccc1/C2=N/OC
4,> 64,Cc1noc2c1C(=O)c1sccc1/C2=N/O

# Test system: Cryptococcus neoformans
# Assay: Antifungal activity against Cryptococcus neoformans ATCC 34877 assessed as reduction in fungal growth incubated for 72 hrs by liquid based microdilution method
# Format: functional
# Details: not given
row,MIC80 [µg/mL],Compound
1,0.13,CCc1noc2c1C(=O)c1sccc1/C2=N/OC
2,8,Cc1noc2c1C(=O)c1sccc1/C2=N/O

# Test system: Candida albicans
# Assay: Antifungal activity against Candida albicans assessed as reduction in fungal growth incubated for 24 hrs by broth microdilution method
# Format: functional
# Details: not given
row,MIC80 [µg/mL],Compound
1,0.5,O=C1c2ccccc2-c2nccc3ccnc1c23 [SAMPANGINE]
2,0.5,Cc1ccnc2c1C(=O)c1sc([N+](=O)[O-])cc1C2=O

# Test system: Nakaseomyces glabratus
# Assay: Antifungal activity against Candida glabrata 9073 assessed as reduction in fungal growth incubated for 48 hrs by liquid based microdilution method
# Format: functional
# Details: not given
row,Compound,MIC80 [µg/mL]
1,CO/N=C1/c2ccsc2/C(=N\OC)c2ccsc21,> 64
2,CO/N=C1/c2ccsc2C(=O)c2ccsc21,> 64

# The remaining lines, values ahead:
row,MIC80 [µg/mL],Compound
1,1,Cc1noc2c1C(=O)c1sccc1C2=O
2,> 64,CO/N=C1/c2ccccc2C(=O)c2c(C)noc21
3,> 64,CCc1noc2c1C(=O)c1sccc1/C2=N/OC
4,> 64,Cc1noc2c1C(=O)c1sccc1/C2=N/O

# Test system: Candida albicans
# Assay: Antagonistic antifungal activity against Candida albicans 0304103 assessed as fractional inhibitory concentration index by measuring ratio of MIC80 for compound and synergetic / MIC80 for compound alone + MIC80 for fluconazole synergetic / MIC80 for fluconazole alone
# Format: functional
# Details: not given
row,Compound,fractional inhibitory concentration index (FICI)
1,CO/N=C1/c2ccsc2/C(=N\OC)c2ccsc21,>2

# Test system: Candida albicans
# Assay: Antifungal activity against Candida albicans 0304103 assessed as reduction in fungal growth incubated for 48 hrs by liquid based microdilution method
# Format: functional
# Details: not given
row,Compound,MIC80 [µg/mL]
1,CO/N=C1/c2ccsc2/C(=N\OC)c2ccsc21,> 64
2,CO/N=C1/c2ccsc2C(=O)c2ccsc21,> 64

# Second part, the compound after the results:
row,MIC80 [µg/mL],Compound
1,0.5,Cc1noc2c1C(=O)c1sccc1C2=O
2,> 64,CO/N=C1/c2ccccc2C(=O)c2c(C)noc21
3,> 64,CCc1noc2c1C(=O)c1sccc1/C2=N/OC
4,> 64,Cc1noc2c1C(=O)c1sccc1/C2=N/O

# Test system: not listed separately
# Assay: Antifungal activity against Cryptococcus gattii VGI ATCC 14116 assessed as reduction in fungal growth incubated for 72 hrs by liquid based microdilution method
# Format: functional
# Details: not given
row,MIC80 [µg/mL],Compound
1,4,CCc1noc2c1C(=O)c1sccc1/C2=N/OC
2,4,Cc1noc2c1C(=O)c1sccc1/C2=N/O

# Test system: Candida albicans
# Assay: Synergistic antifungal activity against Candida albicans 0304103 assessed as inhibition of fungal growth incubated for 48 hrs in presence of fluconazole by checkerboard microdilution assay
# Format: functional
# Details: not given
row,Compound,MIC80 [µg/mL]
1,CO/N=C1/c2ccsc2/C(=N\OC)c2ccsc21,> 64
2,CO/N=C1/c2ccsc2C(=O)c2ccsc21,2

# The remaining lines, values ahead:
row,MIC80 [µg/mL],Compound
1,2,CO/N=C1/c2ccccc2C(=O)c2c(C)noc21
2,2,CCc1noc2c1C(=O)c1sccc1/C2=N/OC
3,2,Cc1noc2c1C(=O)c1sccc1/C2=N/O

# Test system: not listed separately
# Assay: Effective permeability of the compound across blood brain barrier incubated for 12 hrs by PAMPA assay
# Format: ADME
# Details: read-out: Peff
row,Papp at 12 h [×10⁻⁶ cm/s],Compound
1,7.69,Cc1noc2c1C(=O)c1sccc1C2=O

# Test system: Candida albicans
# Assay: Antifungal activity against Candida albicans SC5314 assessed as reduction in fungal growth incubated for 48 hrs by liquid based microdilution method
# Format: functional
# Details: not given
row,Compound,MIC80 [µg/mL]
1,CO/N=C1/c2ccsc2/C(=N\OC)c2ccsc21,> 64
2,CO/N=C1/c2ccsc2C(=O)c2ccsc21,> 64

# More lines, now with the values ahead:
row,MIC80 [µg/mL],Compound
1,0.13,Cc1noc2c1C(=O)c1sccc1C2=O
2,> 64,CO/N=C1/c2ccccc2C(=O)c2c(C)noc21
3,> 64,CCc1noc2c1C(=O)c1sccc1/C2=N/OC
4,> 64,Cc1noc2c1C(=O)c1sccc1/C2=N/O
